The results in this text go back to ChEMBL document CHEMBL1201862, “PubChem BioAssay data set” (2004).

Structures are written as SMILES.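 96-well plates; 48 h exposure; 5 concentrations. Endpoints by linear interpolation between flanking doses. Not reached: highest tested concentration assigned. Abbreviation: GI50, concentration required for 50% inhibition of growth.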 The source made the active and inactive calls. Rule as the data show it: active = GI50 up to about 1.1 µM and inactive = higher. A value given as a limit tells only on which side of the number the result lay.

Some test systems named below: A498; ACHN; CAKI-1; DU-145; K562; KM12; MDA-MB-435; MDA-N; Malme-3M; NCI-H23; NCI/ADR-RES; OVCAR-5; SK-MEL-28; SK-OV-3; SR; BT-549; Hs-578T; LOX IMVI; SNB-75.
Test in all cases: growth of human tumour cells (NCI), 48 h

Turning to `N#CC1=C(Nc2ccccc2)SC=C(c2ccccc2)N=C1NCc1ccccc1`, the GI50 in the assay with A498 was > 100 µM (inactive); with ACHN, > 100 µM (inactive); in the assay with CAKI-1 it was > 100 µM (inactive); in the assay with DU-145 it was > 100 µM (inactive); in the assay with K562, 24.9 µM (inactive); in the assay with KM12, > 100 µM (inactive). In addition, the GI50 in the assay on MDA-MB-435, with MDA-N, in the assay with Malme-3M, in the assay on NCI-H23, in the assay on NCI/ADR-RES and in the assay with OVCAR-5 was > 100 µM (inactive) in each case. Also, the GI50 was > 100 µM (inactive) with SK-MEL-28, > 100 µM (inactive) in the assay with SK-OV-3 and 0.984 µM (active) in the assay with SR.

For `Cc1nnc(N)nc1/C=C\c1cccs1`, the GI50 was 22 µM (inactive) in the assay on A498; 15 µM (inactive) in the assay on ACHN; 42.9 µM (inactive) with BT-549; 34.2 µM (inactive) with CAKI-1; 79.6 µM (inactive) in the assay on DU-145; 19.9 µM (inactive) with Hs-578T. Also, the GI50 was 23.4 µM (inactive) in the assay with K562; 16.8 µM (inactive) in the assay on KM12; 29.6 µM (inactive) in the assay with LOX IMVI; 18 µM (inactive) in the assay with MDA-MB-435; 13.4 µM (inactive) in the assay with Malme-3M; 17.6 µM (inactive) in the assay with NCI-H23. Besides, the GI50 was 16.7 µM (inactive) with NCI/ADR-RES; 21.8 µM (inactive) in the assay with OVCAR-5; 28.8 µM (inactive) in the assay with SK-MEL-28; 36.5 µM (inactive) in the assay on SK-OV-3; 16.6 µM (inactive) in the assay on SR.

Regarding `Clc1ccc(OCc2nn3c(CCc4nnc5sc(COc6ccc(Cl)cc6)nn45)nnc3s2)cc1`, the GI50 in the assay on A498 was 11.9 µM (inactive); in the assay with ACHN, 15.1 µM (inactive); in the assay with CAKI-1, 3.35 µM (inactive); in the assay on DU-145, 19.1 µM (inactive); in the assay on Hs-578T it was 3.94 µM (inactive); with K562, 9.4 µM (inactive). Further, the GI50 is 18 µM (inactive) in the assay on KM12; 37.2 µM (inactive) with LOX IMVI; 24.9 µM (inactive) with MDA-MB-435; 30.3 µM (inactive) with MDA-N; 15.3 µM (inactive) in the assay with NCI-H23; 8.15 µM (inactive) in the assay on NCI/ADR-RES. Besides, the GI50 with OVCAR-5 is 53.7 µM (inactive); in the assay on SK-MEL-28, 33.9 µM (inactive); with SK-OV-3, 28.8 µM (inactive).

As for `CC1=CC(=O)/C(=C/NC(=S)c2ccccc2)C(=O)O1`, the GI50 in the assay with ACHN, in the assay with BT-549, in the assay on CAKI-1, with DU-145, in the assay with KM12 and in the assay on LOX IMVI was > 100 µM (inactive) each time. The GI50 in the assay with MDA-MB-435, with MDA-N, in the assay with NCI-H23, with NCI/ADR-RES, with OVCAR-5 and in the assay on SK-MEL-28 was > 100 µM (inactive) throughout. For the same compound, the GI50 in the assay on SK-OV-3 and in the assay on SNB-75 was > 100 µM (inactive) each time.

Take `COc1ccc2c(c1)CN1C(=N2)CSC1c1cc([N+](=O)[O-])ccc1Cl` (stereo not given): the GI50 is 44.7 µM (inactive) in the assay with ACHN; 22.5 µM (inactive) in the assay on BT-549; 27.3 µM (inactive) in the assay on CAKI-1; 47.1 µM (inactive) in the assay on Hs-578T; 10.8 µM (inactive) in the assay on K562; 28.1 µM (inactive) with KM12. Besides, the GI50 in the assay with LOX IMVI was 31.3 µM (inactive); in the assay with MDA-MB-435, 19.4 µM (inactive); with MDA-N, 17.8 µM (inactive); with Malme-3M, 55.8 µM (inactive); in the assay with NCI-H23, 29 µM (inactive); in the assay with NCI/ADR-RES, 25.1 µM (inactive). Further, the GI50 in the assay on OVCAR-5 was 58.5 µM (inactive); in the assay with SK-OV-3, 45.3 µM (inactive); with SNB-75, 52.1 µM (inactive); in the assay on SR, 33.8 µM (inactive).

On to `Cc1ccc(S(=O)(=O)n2c3c(c4ccccc42)CCN2CCC(Br)C[C@@H]32)cc1` (stereo not given in full), for which the GI50 was 22.6 µM (inactive) in the assay with A498; 17 µM (inactive) in the assay on ACHN; 11.8 µM (inactive) in the assay on CAKI-1; 15.1 µM (inactive) in the assay with DU-145; 13.7 µM (inactive) with Hs-578T; 5.11 µM (inactive) in the assay on K562. Further, the GI50 in the assay with KM12 is 8.81 µM (inactive); in the assay on LOX IMVI, 13.9 µM (inactive); in the assay with MDA-MB-435 it was 3.79 µM (inactive); in the assay on MDA-N, 4.42 µM (inactive); with Malme-3M it was 13.2 µM (inactive); in the assay with NCI-H23 it was 11.7 µM (inactive). In addition, the GI50 with NCI/ADR-RES was 16.2 µM (inactive); in the assay on OVCAR-5, 17.3 µM (inactive); with SK-MEL-28, 11.9 µM (inactive); in the assay on SK-OV-3, 15.7 µM (inactive); with SNB-75, 12.2 µM (inactive); in the assay with SR, 5.11 µM (inactive).

Consider `CCOC(=O)OC1(c2ccccc2)CCN(C)CC1`, for which the GI50 in the assay on A498, in the assay on ACHN, in the assay on CAKI-1, in the assay with DU-145, with Hs-578T and in the assay with K562 was > 100 µM (inactive) throughout. Besides, the GI50 with KM12, with LOX IMVI, with MDA-MB-435, in the assay with MDA-N, with Malme-3M and in the assay on NCI-H23 was > 100 µM (inactive) throughout. Moreover, the GI50 with NCI/ADR-RES, with OVCAR-5, in the assay with SK-MEL-28, in the assay on SK-OV-3, in the assay with SNB-75 and in the assay on SR was > 100 µM (inactive) each time.

`CCOC(=O)c1cccn1S(=O)(=O)c1cc(Cl)ccc1NC(=O)CC`: the GI50 is > 100 µM (inactive) in the assay with A498; > 100 µM (inactive) with ACHN; 52.6 µM (inactive) in the assay with BT-549; > 100 µM (inactive) in the assay on CAKI-1; > 100 µM (inactive) in the assay with DU-145; 28.9 µM (inactive) with Hs-578T. Moreover, the GI50 is 51.8 µM (inactive) in the assay on K562; 44.9 µM (inactive) in the assay on KM12; 70.5 µM (inactive) with LOX IMVI; 33.3 µM (inactive) in the assay on MDA-MB-435; > 100 µM (inactive) in the assay on OVCAR-5; > 100 µM (inactive) in the assay on SK-MEL-28. Moreover, the GI50 was 43.3 µM (inactive) in the assay with SK-OV-3, 33.3 µM (inactive) with SNB-75 and > 10 µM (inactive) with SR.

`CSCCC(NC(=O)Cc1ccc(C(=O)c2ccccc2)cc1)C(=O)N1CCN(CCCCN2c3ccccc3Sc3cc(N=[N+]=[N-])ccc32)CC1` (stereo not given): the GI50 in the assay with A498 is 72.3 µM (inactive); with ACHN, > 100 µM (inactive); in the assay with BT-549, > 100 µM (inactive); with CAKI-1, > 100 µM (inactive); with DU-145, 47 µM (inactive); in the assay with K562 it was > 100 µM (inactive). Further, the GI50 with KM12 was 20.4 µM (inactive); in the assay on LOX IMVI, > 100 µM (inactive); in the assay on Malme-3M, > 100 µM (inactive); in the assay on NCI-H23 it was 27.9 µM (inactive); with OVCAR-5, > 100 µM (inactive); in the assay with SK-OV-3, > 100 µM (inactive).
